Results on eleven cell lines are retold here after the supplement of paper PMC10307832.

What all share (assay): relative viability (nuclei count vs DMSO), 5 days (fraction); higher = more cells survive
Compound in the test “Selisistat + AZD7762”: C1CC(C2=C(C1)C3=C(N2)C=CC(=C3)Cl)C(=O)N [Selisistat] + NC(=O)Nc1cc(-c2cccc(F)c2)sc1C(=O)N[C@H]1CCCNC1 [AZD7762] (partner 0.2 µM)
In a few lines:
(§1)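 Medians of duplicate plates are given as relative viability. That measure is the nuclei count in treated wells divided by the count in vehicle wells. Counts were taken on 4× images of lung cancer cell lines in 1536-well plates, 5 days after pin-tool dosing the day after seeding with one drug alone or a fixed anchor-drug dose plus five library-drug doses (not always all listed) in √10 steps.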

Compound in the test “Selisistat + Olaparib”: C1CC(C2=C(C1)C3=C(N2)C=CC(=C3)Cl)C(=O)N [Selisistat] + O=C(c1cc(Cc2n[nH]c(=O)c3ccccc23)ccc1F)N1CCN(C(=O)C2CC2)CC1 [Olaparib] (partner 8 µM)
In outline:
as §1

Compound in the test “Serdemetan + Foretinib”: c1ccc2c(CCNc3ccc(Nc4ccncc4)cc3)c[nH]c2c1 [Serdemetan] + COc1cc2c(Oc3ccc(NC(=O)C4(C(=O)Nc5ccc(F)cc5)CC4)cc3F)ccnc2cc1OCCCN1CCOCC1 [Foretinib] (partner 0.25 µM)
In a few lines: as §1

Compound in the test “Serdemetan + Crizotinib”: c1ccc2c(CCNc3ccc(Nc4ccncc4)cc3)c[nH]c2c1 [Serdemetan] + C[C@@H](Oc1cc(-c2cnn(C3CCNCC3)c2)cnc1N)c1c(Cl)ccc(F)c1Cl [Crizotinib] (partner 1 µM)
In outline:
as §1

Regarding NCI-H1395, the relative viability is 0.377 in the test with Selisistat + AZD7762 (first compound 0.4 µM); 0.393 in the test with Selisistat + AZD7762 (first compound 1.265 µM); 0.394 with Selisistat + AZD7762 (first compound 12.65 µM); 0.4 with Selisistat + AZD7762 (first compound 40 µM); 0.474 with Selisistat + Olaparib (first compound 0.4 µM); 0.47 in the test with Selisistat + Olaparib (first compound 1.265 µM). Also, the relative viability with Selisistat + Olaparib (first compound 12.65 µM) came out at 0.451; with Selisistat + Olaparib (first compound 40 µM), 0.465; with Serdemetan + Foretinib (first compound 0.04 µM), 1; with Serdemetan + Foretinib (first compound 0.1265 µM) it was 0.969; in the test with Serdemetan + Foretinib (first compound 0.4 µM), 0.926; with Serdemetan + Foretinib (first compound 1.265 µM), 0.883. The relative viability with Serdemetan + Foretinib (first compound 4 µM) came to 0.571.
Turning to NCI-H1563, the relative viability is 0.82 with Serdemetan + Foretinib (first compound 0.04 µM); 0.897 with Serdemetan + Foretinib (first compound 0.1265 µM); 0.745 with Serdemetan + Foretinib (first compound 0.4 µM); 0.69 with Serdemetan + Foretinib (first compound 1.265 µM); 0.64 with Serdemetan + Foretinib (first compound 4 µM); 0.835 in the test with Serdemetan + Crizotinib (first compound 0.04 µM). The relative viability amounted to 0.786 with Serdemetan + Crizotinib (first compound 0.1265 µM), 0.77 with Serdemetan + Crizotinib (first compound 0.4 µM), 0.68 with Serdemetan + Crizotinib (first compound 1.265 µM) and 0.704 with Serdemetan + Crizotinib (first compound 4 µM).
As to NCI-H1623, the relative viability in the test with Serdemetan + Foretinib (first compound 0.04 µM) turned out to be 0.901; with Serdemetan + Foretinib (first compound 0.1265 µM), 0.917; with Serdemetan + Foretinib (first compound 0.4 µM) it was 0.698; with Serdemetan + Foretinib (first compound 1.265 µM), 0.756; with Serdemetan + Foretinib (first compound 4 µM), 0.703.
On to NCI-H1648, for which the relative viability with Selisistat + AZD7762 (first compound 0.4 µM) was found to be 0.736; with Selisistat + AZD7762 (first compound 1.265 µM), 0.64; with Selisistat + AZD7762 (first compound 12.65 µM), 0.731; in the test with Selisistat + AZD7762 (first compound 40 µM), 0.768; in the test with Selisistat + Olaparib (first compound 0.4 µM), 0.878; with Selisistat + Olaparib (first compound 1.265 µM) it was 0.792. The relative viability with Selisistat + Olaparib (first compound 12.65 µM) was 0.918; in the test with Selisistat + Olaparib (first compound 40 µM) it was 1.2.
Turning to NCI-H1650, the relative viability came to 0.933 with Selisistat + Olaparib (first compound 0.4 µM); 0.863 with Selisistat + Olaparib (first compound 1.265 µM); 0.86 with Selisistat + Olaparib (first compound 4 µM); 0.852 with Selisistat + Olaparib (first compound 12.65 µM); 0.702 in the test with Selisistat + Olaparib (first compound 40 µM); 1 with Serdemetan + Foretinib (first compound 0.04 µM). Further, the relative viability amounted to 1.21 with Serdemetan + Foretinib (first compound 0.1265 µM); 0.989 with Serdemetan + Foretinib (first compound 0.4 µM); 1.14 with Serdemetan + Foretinib (first compound 1.265 µM); 0.658 in the test with Serdemetan + Foretinib (first compound 4 µM); 0.914 in the test with Serdemetan + Crizotinib (first compound 0.04 µM); 1.09 with Serdemetan + Crizotinib (first compound 0.1265 µM). The relative viability came to 0.927 in the test with Serdemetan + Crizotinib (first compound 0.4 µM), 0.944 with Serdemetan + Crizotinib (first compound 1.265 µM) and 0.879 in the test with Serdemetan + Crizotinib (first compound 4 µM).
In the case of NCI-H2009, the relative viability with Selisistat + Olaparib (first compound 0.4 µM) stood at 0.763; in the test with Selisistat + Olaparib (first compound 1.265 µM), 0.683; with Selisistat + Olaparib (first compound 4 µM) it was 0.838; in the test with Selisistat + Olaparib (first compound 12.65 µM), 0.743; in the test with Selisistat + Olaparib (first compound 40 µM), 0.672; with Serdemetan + Foretinib (first compound 0.04 µM) it was 1.18. In addition, the relative viability with Serdemetan + Foretinib (first compound 0.1265 µM) was determined as 1.14; with Serdemetan + Foretinib (first compound 0.4 µM) it was 1.16; in the test with Serdemetan + Foretinib (first compound 1.265 µM), 1.14; in the test with Serdemetan + Foretinib (first compound 4 µM), 0.887; with Serdemetan + Crizotinib (first compound 0.04 µM), 1; in the test with Serdemetan + Crizotinib (first compound 0.1265 µM) it was 0.966. The results for the relative viability with Serdemetan + Crizotinib (first compound 0.4 µM), in the test with Serdemetan + Crizotinib (first compound 1.265 µM) and with Serdemetan + Crizotinib (first compound 4 µM) were 0.912, 0.803 and 0.956, respectively.
With NCI-H2023, the relative viability with Selisistat + Olaparib (first compound 0.4 µM) is 0.555; with Selisistat + Olaparib (first compound 1.265 µM) it was 0.443; with Selisistat + Olaparib (first compound 4 µM), 0.523; with Selisistat + Olaparib (first compound 12.65 µM) it was 0.413; with Selisistat + Olaparib (first compound 40 µM), 0.435; with Serdemetan + Foretinib (first compound 0.04 µM) it was 0.804. The relative viability was 0.795 with Serdemetan + Foretinib (first compound 0.1265 µM); 0.689 with Serdemetan + Foretinib (first compound 0.4 µM); 0.653 with Serdemetan + Foretinib (first compound 1.265 µM); 0.267 in the test with Serdemetan + Foretinib (first compound 4 µM); 0.688 in the test with Serdemetan + Crizotinib (first compound 0.04 µM); 0.644 in the test with Serdemetan + Crizotinib (first compound 0.1265 µM). Moreover, the relative viability is 0.452 with Serdemetan + Crizotinib (first compound 0.4 µM), 0.286 with Serdemetan + Crizotinib (first compound 1.265 µM) and 0.237 in the test with Serdemetan + Crizotinib (first compound 4 µM).
For NCI-H2228, the relative viability came out at 0.637 with Selisistat + Olaparib (first compound 0.4 µM); 0.656 with Selisistat + Olaparib (first compound 1.265 µM); 0.523 with Selisistat + Olaparib (first compound 4 µM); 0.741 with Selisistat + Olaparib (first compound 12.65 µM); 0.702 in the test with Selisistat + Olaparib (first compound 40 µM); 0.755 in the test with Serdemetan + Foretinib (first compound 0.04 µM). Further, the relative viability amounted to 0.518 with Serdemetan + Foretinib (first compound 0.1265 µM); 0.784 in the test with Serdemetan + Foretinib (first compound 0.4 µM); 0.303 with Serdemetan + Foretinib (first compound 1.265 µM); 0.258 with Serdemetan + Foretinib (first compound 4 µM); 0.466 with Serdemetan + Crizotinib (first compound 0.04 µM); 0.284 with Serdemetan + Crizotinib (first compound 0.1265 µM). The relative viability in the test with Serdemetan + Crizotinib (first compound 0.4 µM) came to 0.591; with Serdemetan + Crizotinib (first compound 1.265 µM), 0.237; with Serdemetan + Crizotinib (first compound 4 µM) it was 0.287.
On to SK-LU-1, for which the relative viability was 0.567 with Selisistat + Olaparib (first compound 0.4 µM); 0.408 with Selisistat + Olaparib (first compound 1.265 µM); 0.404 in the test with Selisistat + Olaparib (first compound 4 µM); 0.495 with Selisistat + Olaparib (first compound 12.65 µM); 0.529 with Selisistat + Olaparib (first compound 40 µM); 0.767 with Serdemetan + Foretinib (first compound 0.04 µM). The relative viability amounted to 0.745 in the test with Serdemetan + Foretinib (first compound 0.1265 µM); 0.77 with Serdemetan + Foretinib (first compound 0.4 µM); 0.61 with Serdemetan + Foretinib (first compound 4 µM); 0.813 with Serdemetan + Crizotinib (first compound 0.04 µM); 0.899 with Serdemetan + Crizotinib (first compound 0.1265 µM); 0.82 with Serdemetan + Crizotinib (first compound 0.4 µM). For the same cell line, the relative viability was found to be 0.679 in the test with Serdemetan + Crizotinib (first compound 1.265 µM) and 0.712 with Serdemetan + Crizotinib (first compound 4 µM).
As to SK-MES-1, the relative viability came to 0.769 with Selisistat + Olaparib (first compound 0.4 µM); 0.717 in the test with Selisistat + Olaparib (first compound 1.265 µM); 0.823 with Selisistat + Olaparib (first compound 4 µM); 0.736 with Selisistat + Olaparib (first compound 12.65 µM); 0.809 with Selisistat + Olaparib (first compound 40 µM); 0.877 with Serdemetan + Foretinib (first compound 0.04 µM). Also, the relative viability amounted to 0.915 in the test with Serdemetan + Foretinib (first compound 0.1265 µM); 0.842 with Serdemetan + Foretinib (first compound 0.4 µM); 0.847 with Serdemetan + Foretinib (first compound 1.265 µM); 0.534 with Serdemetan + Foretinib (first compound 4 µM); 0.983 in the test with Serdemetan + Crizotinib (first compound 0.04 µM); 0.976 in the test with Serdemetan + Crizotinib (first compound 0.1265 µM). Further, the relative viability in the test with Serdemetan + Crizotinib (first compound 0.4 µM) is 0.898; with Serdemetan + Crizotinib (first compound 1.265 µM) it was 0.647; with Serdemetan + Crizotinib (first compound 4 µM) it was 0.56.
For the cell line SW 1573, the relative viability was determined as 0.4 in the test with Selisistat + Olaparib (first compound 0.4 µM); 0.462 with Selisistat + Olaparib (first compound 1.265 µM); 0.505 in the test with Selisistat + Olaparib (first compound 4 µM); 0.639 in the test with Selisistat + Olaparib (first compound 12.65 µM); 0.505 with Selisistat + Olaparib (first compound 40 µM); 0.898 in the test with Serdemetan + Foretinib (first compound 0.04 µM). For the same cell line, the relative viability came out at 0.815 in the test with Serdemetan + Foretinib (first compound 0.1265 µM); 0.877 in the test with Serdemetan + Foretinib (first compound 0.4 µM); 0.668 with Serdemetan + Foretinib (first compound 1.265 µM); 0.422 with Serdemetan + Foretinib (first compound 4 µM); 0.851 in the test with Serdemetan + Crizotinib (first compound 0.04 µM); 0.702 with Serdemetan + Crizotinib (first compound 0.1265 µM). Moreover, the relative viability in the test with Serdemetan + Crizotinib (first compound 0.4 µM) turned out to be 0.761; in the test with Serdemetan + Crizotinib (first compound 1.265 µM), 0.385; with Serdemetan + Crizotinib (first compound 4 µM), 0.207.
